US9113629B2, “4-amino-6-(4-substituted-phenyl)-picolinates and 6-amino-2-(4-substituted-phenyl)-pyrimidine-4-carboxylates and their use as herbicides” (DOW AGROSCIENCES LLC, priority 2013, dated 2015)

system: Key Grass and Sedge Weeds as well as Grass Crops; assay: Post-emergent Test II herbicidal activity (Table 6); format: in vivo; conditions: post-emergence, 336 h, CYPES: yellow nutsedge (Cyperus esculentus), application rate 140 g ai/ha, read-out: Visual Growth Reduction (%) 14 Days After Application, CYPES
How it was run: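 Compounds, dissolved in 97:3 acetone/DMSO and diluted into an aqueous carrier containing crop oil concentrate and Triton X-155, are applied over the top of young plants at 187 L/ha. Injury is scored visually at 14 d, 0% meaning no effect and 100% complete kill.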

Row | SMILES | pest or weed control at 140 g/ha [%]
1 | Nc1c(F)c(-c2cc(F)c(C(F)F)cc2F)nc(C(=O)O)c1Cl [Compound 178] | 85 to 94

same assay, conditions: post-emergence, 336 h, DIGSA: crabgrass (Digitaria sanguinalis), application rate 70 g ai/ha, read-out: Visual Growth Reduction (%) 14 Days After Application, DIGSA

Row | SMILES | pest or weed control at 70 g/ha [%]
2 | Nc1c(F)c(-c2cc(F)c(C(F)F)cc2F)nc(C(=O)O)c1Cl [Compound 178] | 0 to 29

same assay, conditions: post-emergence, 336 h, DIGSA: crabgrass (Digitaria sanguinalis), application rate 140 g ai/ha, read-out: Visual Growth Reduction (%) 14 Days After Application, DIGSA

Row | SMILES | pest or weed control at 140 g/ha [%]
3 | Nc1c(F)c(-c2cc(F)c(C(F)F)cc2F)nc(C(=O)O)c1Cl [Compound 178] | 45 to 59

same assay, conditions: post-emergence, 336 h, ECHCG: barnyardgrass (Echinochloa crus-galli), application rate 70 g ai/ha, read-out: Visual Growth Reduction (%) 14 Days After Application, ECHCG

Row | SMILES | pest or weed control at 70 g/ha [%]
4 | Nc1c(F)c(-c2cc(F)c(C(F)F)cc2F)nc(C(=O)O)c1Cl [Compound 178] | 60 to 74

same assay, conditions: post-emergence, 336 h, ECHCG: barnyardgrass (Echinochloa crus-galli), application rate 140 g ai/ha, read-out: Visual Growth Reduction (%) 14 Days After Application, ECHCG

Row | SMILES | pest or weed control at 140 g/ha [%]
5 | Nc1c(F)c(-c2cc(F)c(C(F)F)cc2F)nc(C(=O)O)c1Cl [Compound 178] | 85 to 94

same assay, conditions: post-emergence, 336 h, ORYSA: rice (Oryza sativa), application rate 70 g ai/ha, read-out: Visual Growth Reduction (%) 14 Days After Application, ORYSA

Row | SMILES | pest or weed control at 70 g/ha [%]
6 | Nc1c(F)c(-c2cc(F)c(C(F)F)cc2F)nc(C(=O)O)c1Cl [Compound 178] | 0 to 29

same assay, conditions: post-emergence, 336 h, ORYSA: rice (Oryza sativa), application rate 140 g ai/ha, read-out: Visual Growth Reduction (%) 14 Days After Application, ORYSA

Row | SMILES | pest or weed control at 140 g/ha [%]
7 | Nc1c(F)c(-c2cc(F)c(C(F)F)cc2F)nc(C(=O)O)c1Cl [Compound 178] | 0 to 29

same assay, conditions: post-emergence, 336 h, SETFA: giant foxtail (Setaria faberi), application rate 70 g ai/ha, read-out: Visual Growth Reduction (%) 14 Days After Application, SETFA

Row | SMILES | pest or weed control at 70 g/ha [%]
8 | Nc1c(F)c(-c2cc(F)c(C(F)F)cc2F)nc(C(=O)O)c1Cl [Compound 178] | 85 to 94

same assay, conditions: post-emergence, 336 h, SETFA: giant foxtail (Setaria faberi), application rate 140 g ai/ha, read-out: Visual Growth Reduction (%) 14 Days After Application, SETFA

Row | SMILES | pest or weed control at 140 g/ha [%]
9 | Nc1c(F)c(-c2cc(F)c(C(F)F)cc2F)nc(C(=O)O)c1Cl [Compound 178] | 85 to 94

same assay, conditions: post-emergence, 336 h, SORVU: grain sorghum (Sorghum vulgare), application rate 70 g ai/ha, read-out: Visual Growth Reduction (%) 14 Days After Application, SORVU

Row | SMILES | pest or weed control at 70 g/ha [%]
10 | Nc1c(F)c(-c2cc(F)c(C(F)F)cc2F)nc(C(=O)O)c1Cl [Compound 178] | 45 to 59

same assay, conditions: post-emergence, 336 h, SORVU: grain sorghum (Sorghum vulgare), application rate 140 g ai/ha, read-out: Visual Growth Reduction (%) 14 Days After Application, SORVU

Row | SMILES | pest or weed control at 140 g/ha [%]
11 | Nc1c(F)c(-c2cc(F)c(C(F)F)cc2F)nc(C(=O)O)c1Cl [Compound 178] | 60 to 74

same assay, conditions: post-emergence, 336 h, TRZSS (wheat, Triticum aestivum), application rate 70 g ai/ha, read-out: Visual Growth Reduction (%) 14 Days After Application, TRZSS

Row | SMILES | pest or weed control at 70 g/ha [%]
12 | Nc1c(F)c(-c2cc(F)c(C(F)F)cc2F)nc(C(=O)O)c1Cl [Compound 178] | 30 to 44

same assay, conditions: post-emergence, 336 h, TRZSS (wheat, Triticum aestivum), application rate 140 g ai/ha, read-out: Visual Growth Reduction (%) 14 Days After Application, TRZSS

Row | SMILES | pest or weed control at 140 g/ha [%]
13 | Nc1c(F)c(-c2cc(F)c(C(F)F)cc2F)nc(C(=O)O)c1Cl [Compound 178] | 45 to 59

same assay, conditions: post-emergence, 336 h, ZEAMX: maize, corn (Zea mays), application rate 70 g ai/ha, read-out: Visual Growth Reduction (%) 14 Days After Application, ZEAMX

Row | SMILES | pest or weed control at 70 g/ha [%]
14 | Nc1c(F)c(-c2cc(F)c(C(F)F)cc2F)nc(C(=O)O)c1Cl [Compound 178] | 0 to 29

same assay, conditions: post-emergence, 336 h, ZEAMX: maize, corn (Zea mays), application rate 140 g ai/ha, read-out: Visual Growth Reduction (%) 14 Days After Application, ZEAMX

Row | SMILES | pest or weed control at 140 g/ha [%]
15 | Nc1c(F)c(-c2cc(F)c(C(F)F)cc2F)nc(C(=O)O)c1Cl [Compound 178] | 30 to 44

system: not given; assay: not given; conditions: not given

Row | melting point [°C] | SMILES
16 | 86.1 to 88.4 | Nc1c(F)c(-c2cc(F)c(C(F)F)cc2F)nc(C(=O)O)c1Cl [Compound 178]
